Source: patent US4428806A, “Process for producing brominated 1,3-dioxolen-2-ones” (priority 1981, dated 1984)
Where a name gives a salt, the structure may show the parent alone. Read-outs that look alike come from different tables or passages of the source. One block for each compound: values may come before it.

What was measured:
[1] = Conversion to ampicillin in 40% mouse blood (incubation and bioautography); type: in vitro ADME
Description: The resulting ampicillin ester hydrochloride was incubated at 37° C. for 10 minutes in 40% mouse blood, and then bioautographed.
The resulting ampicillin (5-phenyl-2-oxo-1,3-dioxolen-4-yl)methyl ester hydrochloride was incubated at 37° C. for […] in 40% mouse blood, and then bioautographed.
The product was incubated and bioautographed in the same way as in Referential Example 1.

[2] = Blood level in oral administration (ampicillin concentration in serum, bioassay); type: in vivo, mice (ddY-strain); conditions: mice; for Ratio of the concentration of ampicillin in the serum: 50 mg/kg as ampicillin, ratio to ampicillin trihydrate (C = 1.0)
Description: Each of the test compounds (as an aqueous solution having a concentration of 5 mg/ml as ampicillin) was orally administered in a dose of 50 mg/kg as ampicillin to four week old mice (ddY-strain, body weight about 20 g, five per group) which were caused to fast overnight. The blood was taken from the mice periodically, and the concentration of ampicillin in the serum was measured by a bioassay method. The blood Ampicillin level ratio was calculated from the following equation. [formula]

in vitro [3] = type: in vitro ADME; conditions: pH 1.2
Description: (§1) 1. Test compounds: A and B above
Each of the test compounds was dissolved in an acidic medium (pH 1.2) consisting of 2.0 g of sodium chloride, 24 ml of 10% hydrochloric acid, 3.2 g of pepsin and 1000 ml of water. The solution was shaken at 37° C., and sampled periodically. The sample was subjected to high-performance liquid chromatography using a reversed phase partition column, and the degree of hydrolysis of each of the test compounds was determined from a decrease in its peak height.

in vitro [4] = type: in vitro ADME; conditions: pH 7.5
Description: as §1
Each of the test compounds was dissolved in a basic medium (pH 7.5) consisting of 35.8 g of disodium phosphate, 6.0 ml of 10% hydrochloric acid and 2.8 g of pancreatin and 1000 ml of water, and the degree of hydrolysis of each test compound was determined as in the case of the acidic medium.

SMILES: CC1(C)S[C@@H]2[C@H](NC(=O)[C@H](N)c3ccccc3)C(=O)N2[C@H]1C(=O)O [C, Ampicillin trihydrate]
Ratio of the concentration of ampicillin in the serum ([2]; 15 min): 1.0 | Ratio of the concentration of ampicillin in the serum ([2]; 30 min): 1.0 | Ratio of the concentration of ampicillin in the serum ([2]; 60 min): 1.0 | Ratio of the concentration of ampicillin in the serum ([2]; 90 min): 1.0 | Ratio of the concentration of ampicillin in the serum ([2]; 120 min): 1.0 | Ratio of the concentration of ampicillin in the serum ([2]; 180 min): 1.0

SMILES: Cc1oc(=O)oc1COC(=O)[C@@H]1N2C(=O)[C@@H](NC(=O)[C@H](N)c3ccccc3)[C@H]2SC1(C)C [A, Ampicillin (5-methyl-2-oxo-1,3-dioxolen-4-yl) methyl ester hydrochloride]
Absorption, conversion to ampicillin and blood level (in words) ([2]; compared with C and B): easily absorbed and converted back to the original ampicillin in vivo, and shows a high blood level over a longer period of time than ampicillin (C) and the known ampicillin ester (B) | Conversion to ampicillin in mouse blood ([1]; 40% mouse blood, 37° C., 10 minutes): completely changed to ampicillin | metabolised at 1 h (in vitro [3]; acidic medium with pepsin): 7% | metabolised at 4 h (in vitro [3]; acidic medium with pepsin): 20% | Stability in the acidic medium (in words) (in vitro [3]): much more stable than the known control compound (B) | metabolised at 1 h (in vitro [4]; basic medium with pancreatin): 80% | Stability in the basic medium (in words) (in vitro [4]): much more stable than the known control compound (B)

More lines, now with the values ahead:

Conversion to ampicillin in mouse blood [1]: changed completely to ampicillin
SMILES: CC1(C)S[C@@H]2[C@H](NC(=O)[C@H](N)c3ccccc3)C(=O)N2[C@H]1C(=O)OC1CCCc2oc(=O)oc21 (stereo partly drawn) [Referential Example 1, ampicillin (2,3-carbonyldioxy-2-cyclohexenyl) ester hydrochloride]

Conversion to ampicillin in mouse blood [1]: completely changed to ampicillin
SMILES: CC1(C)S[C@@H]2[C@H](NC(=O)[C@H](N)c3ccccc3)C(=O)N2[C@H]1C(=O)OCc1oc(=O)oc1-c1ccccc1 [Referential Example 2, ampicillin (5-phenyl-2-oxo-1,3-dioxolen-4-yl)methyl ester hydrochloride]

metabolised at 20 h (in vitro [3]; acidic medium with pepsin): 100% | metabolised at 20 min (in vitro [4]; basic medium with pancreatin): 90% | metabolised at 1 h (in vitro [4]; basic medium with pancreatin): 100%
SMILES: CC1(C)S[C@@H]2[C@H](NC(=O)[C@H](N)c3ccccc3)C(=O)N2[C@H]1C(=O)OC1OC(=O)c2ccccc21 (stereo partly drawn) [B, Ampicillin phthalidyl ester hydrochloride]
